Data set [1] in a line: Clearance in rat at 1 mg/kg, iv. Further details: dose 1 mg/kg, route intravenous. The settings on record: in vivo. Type of data set: ADME, organism-based.
Data set [2] is described as follows: Half life in rat at 1 mg/kg, iv. Type of data set: ADME, organism-based. The settings on record: in vivo. Set-up: dose 1 mg/kg, route intravenous.
A short description of data set [3]: Ratio of drug level in brain to blood in rat at 3 mg/kg, po. The class given is ADME, organism-based. Set-up: dose 3 mg/kg, route oral. As to conditions: read-out: BBR.
Data set [4] can be described thus: Volume of distribution at steady state in rat at 1 mg/kg, iv. Further details: dose 1 mg/kg, route intravenous. The class given is ADME, organism-based. The settings on record: in vivo, read-out: Vdss.
A short description of data set [5]: Cmax in rat brain at 3 mg/kg, po. The class given is ADME, organism-based. Further details: dose 3 mg/kg, route oral.
Data set [6] addresses T1, 5-hydroxytryptamine receptor 1B (Homo sapiens, UniProt P28222). Briefly: Displacement of [3H]5HT from human recombinant 5HT1B receptor relative to control.
In data set [7] the target is T2, 5-hydroxytryptamine receptor 1D (Homo sapiens, UniProt P28221). The data set can be described thus: Displacement of [3H]5HT from human recombinant 5HT1D receptor relative to control. In general terms: Loss of bound radioactivity is the signal in a displacement assay; it reports binding, not function.
Data set [8] concerns the target T3, 5-hydroxytryptamine receptor 1A (Homo sapiens, UniProt P08908).
T3 sequence (P08908 whole entry): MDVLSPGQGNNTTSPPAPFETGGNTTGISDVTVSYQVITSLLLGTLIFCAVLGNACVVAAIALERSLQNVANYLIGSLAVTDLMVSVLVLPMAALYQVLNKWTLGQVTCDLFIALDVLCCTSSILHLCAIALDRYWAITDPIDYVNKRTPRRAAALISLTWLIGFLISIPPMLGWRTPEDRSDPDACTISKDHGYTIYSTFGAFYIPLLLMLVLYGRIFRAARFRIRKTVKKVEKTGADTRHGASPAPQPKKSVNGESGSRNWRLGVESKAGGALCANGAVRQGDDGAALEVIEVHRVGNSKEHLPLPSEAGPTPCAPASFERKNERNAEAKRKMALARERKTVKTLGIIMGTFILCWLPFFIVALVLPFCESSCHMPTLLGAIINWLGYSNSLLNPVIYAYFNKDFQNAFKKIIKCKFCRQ

Data set [9] concerns the target T1, 5-hydroxytryptamine receptor 1B.
The target of data set [10] is T2, 5-hydroxytryptamine receptor 1D.
For data set [11], the target named is Sodium-dependent serotonin transporter (Rattus norvegicus, UniProt P31652).
Description: Inhibition of [3H]5HT uptake at SERT in rat cortical synaptosomes
Data set [12] concerns the target T3, 5-hydroxytryptamine receptor 1A. This is another data set of the same source.
In data set [13] the test system is Rattus norvegicus. Briefly: Reversal of SKF-99101-induced increase in seizure threshold in orally dosed rat by electroshock threshold test. The class given is functional. The settings on record: po.

pKi: −log10 of the molar value.

T2 sequence (P28221 whole entry): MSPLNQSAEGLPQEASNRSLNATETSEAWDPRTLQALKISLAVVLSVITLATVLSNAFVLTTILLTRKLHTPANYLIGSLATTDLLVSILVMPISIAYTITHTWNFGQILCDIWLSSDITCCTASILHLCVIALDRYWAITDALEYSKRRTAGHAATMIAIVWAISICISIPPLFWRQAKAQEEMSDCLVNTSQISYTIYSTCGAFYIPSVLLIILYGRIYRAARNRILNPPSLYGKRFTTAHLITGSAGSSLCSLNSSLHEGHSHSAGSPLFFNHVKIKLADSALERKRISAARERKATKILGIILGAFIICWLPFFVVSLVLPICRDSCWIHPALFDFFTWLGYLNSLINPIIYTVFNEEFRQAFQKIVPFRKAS
T1 sequence (P28222 whole entry): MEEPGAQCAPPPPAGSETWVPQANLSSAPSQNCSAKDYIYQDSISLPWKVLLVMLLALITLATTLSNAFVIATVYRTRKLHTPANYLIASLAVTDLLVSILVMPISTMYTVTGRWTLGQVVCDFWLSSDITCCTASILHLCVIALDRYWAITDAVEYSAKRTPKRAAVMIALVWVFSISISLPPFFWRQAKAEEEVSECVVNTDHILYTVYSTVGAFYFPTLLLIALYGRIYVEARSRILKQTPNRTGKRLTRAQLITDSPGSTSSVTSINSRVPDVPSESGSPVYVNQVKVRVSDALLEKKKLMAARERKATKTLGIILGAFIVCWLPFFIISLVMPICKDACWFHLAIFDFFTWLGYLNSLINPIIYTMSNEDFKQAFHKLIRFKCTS
Chain of Sodium-dependent serotonin transporter (P31652 whole entry): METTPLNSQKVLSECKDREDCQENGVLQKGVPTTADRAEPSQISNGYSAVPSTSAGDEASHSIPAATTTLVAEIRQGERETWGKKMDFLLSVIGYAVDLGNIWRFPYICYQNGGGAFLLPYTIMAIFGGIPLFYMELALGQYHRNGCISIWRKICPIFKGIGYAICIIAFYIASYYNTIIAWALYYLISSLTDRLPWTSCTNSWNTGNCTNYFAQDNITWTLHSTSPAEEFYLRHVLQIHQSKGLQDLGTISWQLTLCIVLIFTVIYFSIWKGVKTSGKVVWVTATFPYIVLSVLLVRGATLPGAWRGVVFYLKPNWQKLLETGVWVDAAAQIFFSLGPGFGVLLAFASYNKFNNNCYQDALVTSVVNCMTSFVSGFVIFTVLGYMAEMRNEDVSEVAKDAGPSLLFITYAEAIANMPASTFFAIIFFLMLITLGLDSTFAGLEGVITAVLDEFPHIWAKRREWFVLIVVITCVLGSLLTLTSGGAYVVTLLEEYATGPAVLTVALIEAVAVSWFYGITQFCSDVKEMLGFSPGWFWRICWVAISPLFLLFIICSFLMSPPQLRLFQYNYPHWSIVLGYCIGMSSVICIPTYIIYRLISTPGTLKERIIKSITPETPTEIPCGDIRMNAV

Turning to `Cc1ccc2c(OCCN3CCC(Cc4cccc(NC(=O)C(C)C)c4)CC3)cccc2n1`, in data set [1], the clearance worked out at 45 mL/min/kg. This compound also showed a half-life in data set [2] of 0.9 h. Also, the Kp in [3] came out at 2.3. Besides, in data set [4], the Vd turned out to be 1.8 L/kg. The Cmax in [5] worked out at 175 ng/g. Besides, the Intrinsic activity is 0.3 in data set [6] and 0.4 in data set [7]. For the same compound, the pKi in data set [8] was 8.20; in [9], 7.30; in [10], 8.90; in data set [11], 6.30.
With `COc1ccc(CN2CCN(CCOc3cccc4nc(C)ccc34)CC2)cc1`, the pKi is 8.30 in data set [12]; 7.30 in [8]; 6.30 in data set [9]; 7.90 in data set [10]; 6.40 in [11].
In the case of `CC(=O)Nc1ccccc1CN1CCN(CCOc2cccc3nc(C)ccc23)CC1`, the pKi in data set [8] is 5.90; in data set [9] it was 5.80; in [10], 8.30; in [11] it was 5.00.
As to `CCNC(=O)Nc1cccc(CC2CCN(CCOc3cccc4nc(C)ccc34)CC2)c1`, the results for the Intrinsic activity in data set [6] and in data set [7] were 0.2 and 0.3, respectively. The pKi was 7.50 in data set [8], 7.60 in data set [9], 9.60 in [10] and 6.60 in [11].
Take `CC(=O)N(C)c1cccc(CN2CCN(CCOc3cccc4nc(C)ccc34)CC2)c1`: the pKi in data set [8] was 6.60; in data set [9], 7.30; in data set [10], 9.50; in data set [11], 6.00.
Regarding `COc1cccc(CN2CCN(CCOc3cccc4nc(C)ccc34)CC2)c1`, the pKi was 7.90 in data set [12], 6.80 in data set [9], 8.60 in [10] and 6.20 in [11].
Regarding `CC(=O)Nc1ccc(CN2CCN(CCOc3cccc4nc(C)ccc34)CC2)cc1`, the pKi is 6.80 in data set [12], 5.90 in [9], 6.70 in data set [10] and 5.80 in data set [11].
As to `CC(=O)Nc1cccc(CN2CCN(CCOc3cccc4nc(C)ccc34)CC2)c1`, the pKi is 8.70 in data set [12]; 6.70 in data set [8]; 7.70 in data set [9]; 9.30 in data set [10]; 5.90 in data set [11].
In the case of `CCN(C(C)=O)c1cccc(CC2CCN(CCOc3cccc4nc(C)ccc34)CC2)c1`, the clearance in data set [1] was found to be 34 mL/min/kg. Further, in data set [2], the half-life is 1.1 h. Besides, in data set [4], the Vd was found to be 1.9 L/kg. In addition, the Cmax in data set [5] worked out at 234 ng/g. Further, the values for the Intrinsic activity in [6] and in [7] were 0.3 and 0.6, respectively. The pKi in data set [8] is 8.30; in [9] it was 7.00; in data set [10] it was 8.80; in [11], 6.10.
In the case of `Cc1ccc2c(OCCN3CCC(Cc4cccc(N(C)S(C)(=O)=O)c4)CC3)cccc2n1`, the values for the Intrinsic activity in [6] and in [7] were 0 and 0.5, respectively. Also, the pKi in data set [8] was 7.90; in data set [9], 7.90; in [10] it was 8.80; in [11] it was 6.00.
`Cc1ccc2c(OCCN3CCC(Cc4cccc(N5CCCC5=O)c4)CC3)cccc2n1` returned a clearance in [1] of 35 mL/min/kg. In data set [2], this compound had a half-life of 1.3 h. In addition, in data set [3], the Kp was 1.2. For the same compound, in data set [4], the Vd worked out at 1.5 L/kg. Besides, the peak level in data set [5] (Cmax) was 410 ng/g. In addition, the Intrinsic activity was determined as 0.4 in [6] and 0.5 in data set [7]. In addition, the pKi in [8] is 8.20; in data set [9], 7.70; in data set [10], 8.70; in [11], 6.70.
Consider `Cc1ccc2c(OCCN3CCN(Cc4ccccc4)CC3)cccc2n1`, for which the pKi in [12] was 7.60; in [8], 6.70; in data set [9] it was 6.60; in data set [10], 9.00; in [11], 6.10.
On to `COc1ccc(CC2CCN(CCOc3cccc4nc(C)ccc34)CC2)cc1NS(C)(=O)=O`, for which the pKi was 6.90 in data set [8], 7.40 in [9], 8.20 in data set [10] and 6.20 in [11].
Consider `CCC(=O)Nc1cccc(CC2CCN(CCOc3cccc4nc(C)ccc34)CC2)c1`, for which the Intrinsic activity in data set [6] and in data set [7] was 0.3 in each case. The pKi in data set [8] was 7.60; in data set [9] it was 7.80; in [10] it was 9.20; in data set [11] it was 6.10.
Turning to `Cc1nc(-c2ccc(-c3ccc(C(=O)N4CCc5cc6c(cc54)C4(CCN(C)CC4)CO6)cc3)c(C)c2)no1` [SB-224289], the ED50 in data set [13] turned out to be 1 mg/kg.
In [1], `CC(=O)Nc1cccc(CC2CCN(CCOc3cccc4nc(C)ccc34)CC2)c1` showed a clearance of 47 mL/min/kg. For the same compound, the half-life in [2] was 0.6 h. Besides, the Kp in [3] was 1.1. For the same compound, the Vd in data set [4] was determined as 1.2 L/kg. This compound also came in with a Cmax in data set [5] of 221 ng/g. Moreover, the Intrinsic activity in data set [6] was 0.3; in data set [7], 0.5. The negative logarithm of the Ki (pKi) in data set [8] is 7.60; in data set [9], 7.70; in data set [10], 9.30; in [11] it was 6.30.
Turning to `CC(=O)N(C)c1cccc(CC2CCN(CCOc3cccc4nc(C)ccc34)CC2)c1`, in [1], the clearance is 37 mL/min/kg. The half-life in data set [2] was 1.2 h. For the same compound, in data set [4], the Vd worked out at 2.2 L/kg. Also, the Cmax in data set [5] was 190 ng/g. Moreover, the figures for the Intrinsic activity in data set [6] and in data set [7] were 0.3 and 0.6, respectively. Moreover, the pKi in [8] is 7.60; in [9] it was 7.40; in data set [10], 8.90; in data set [11] it was 7.10.
For the compound `Cc1ccc2c(OCCN3CCC(Cc4cccc(NC(=O)CN(C)C)c4)CC3)cccc2n1`, the Intrinsic activity in [6] came out at 0.2; in data set [7], 0.4. Moreover, the pKi was 7.80 in data set [8], 8.20 in data set [9], 9.00 in [10] and 6.40 in data set [11].
On to `Cc1ccc2c(OCCN3CCC(Cc4cccc(NS(=O)(=O)C(C)C)c4)CC3)cccc2n1`, for which the Intrinsic activity in [6] was found to be 0.3; in [7], 0.4. For the same compound, the pKi is 8.60 in [8], 8.90 in data set [9], 9.40 in data set [10] and 6.40 in [11].

A word on the clearance: it is the volume of plasma or blood freed of the substance per unit of time. High values mean efficient removal, low ones inefficient removal. The half-life is how long it takes for the measured level to halve. Read a low half-life as rapid decline. What is called Cmax is the highest concentration seen after dosing. For orientation: pKi means the Ki on a negative log10 scale, so that one unit is a factor of ten. Low readings indicate a large Ki, high ones a small Ki. Usually ED50 stands for the dose that gives a 50% effect, or the effect in half of the subjects.

These data come from ChEMBL document CHEMBL1150291, “Discovery of potent, orally bioavailable, selective 5-HT1A/B/D receptor antagonists” (J Med Chem, 2008).
